Results as given in patent US8187821B2, “Compositions and methods for the modulation of PGRMC1” (University of Utah Research Foundation, priority 2008, dated 2012).
Several values for one entry are separate records, joined by “and”; a condition that tells them apart may be missing. Equal values may be shown once. Read-outs that look alike come from different tables or passages of the source.

Key:
[1] = target: T1, His10-PGRMC1 (Homo sapiens, UniProt O00264); test: PGRMC1 binding assay: [^3H] ligand binding to purified bacterial membranes expressing His10-PGRMC1 (+PGRMC1); settings: for Membrane-Associated [^3H] Ligand / Kd / Q1 / Q2: +PGRMC1 membranes; for Membrane-Associated [^3H] Ligand, Specific: Specific (+PGRMC1 minus −PGRMC1); for saturability of specific binding: ligand concentration spanning four orders of magnitude, FIG. 8; for His10-PGRMC1 specific binding with proteolyzed membranes: membranes trypsin-treated prior to ligand binding; for ligand bound at saturation/equilibrium in time course: 37° C; for ligand bound at saturation/equilibrium in time course / time to reach saturation/equilibrium of binding: FIG. 5, time course; for Q1: number of non-specific sites; for Q2: number of specific sites
T1 construct: a product containing the full length coding region of PGMRC1 flanked by Nde1 and BamHI restriction sites; made in house; host or cells: E. coli BL21 (DE3) / BL21 codon plus (RIPL); purified bacterial membranes
T1 sequence (O00264 whole entry): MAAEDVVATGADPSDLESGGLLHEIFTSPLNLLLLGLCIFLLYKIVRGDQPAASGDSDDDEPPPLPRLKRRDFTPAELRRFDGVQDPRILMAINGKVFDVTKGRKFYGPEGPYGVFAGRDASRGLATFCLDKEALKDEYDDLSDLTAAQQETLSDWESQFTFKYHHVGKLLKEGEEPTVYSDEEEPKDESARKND
Method: For bacterial expression, BL21 (DE3) cells (Stratagene, LaJolla, Calif.) were transformed with pET-16b:PGRMC1 and plated on LB agar plates containing ampicillin (amp). One to 7 days later, individual colonies were harvested and used to inoculate small volume (5-200 mL) liquid cultures of LB-amp media. Cultures were grown with shaking at 37° C. until early log phase (OD600=0.6). IPTG was added to a final concentration of […] and the cultures were incubated for another 4 hours at 37° C. or overnight at room temperature. His10-PGRMC1 (His10 disclosed as SEQ ID NO: 14) expression was confirmed by SDS-PAGE followed by Coomassie stain and western blot using mouse monoclonal anti-tetra-His (SEQ ID NO: 15) antibody (Qiagen, Valencia, Calif.).
IPTG-induced cells were harvested by centrifugation (5,000 rpm; 5 min) and washed with ice-cold H2O. The pellet was resuspended in 5 mL buffer A (50 mM Tris-HCl pH 7.5, 150 mM NaCl, 0.1% NP40, and 10% glycerol) with 5-10 mg lysozyme, and incubated on ice for 30 min. The cells were then disrupted by three bursts of sonication (45 sec) at high intensity with a 45 sec cooling period between bursts. Soluble material was removed by centrifugation (15,000 rpm, 10 min) and the pellet resuspended in 5 mL buffer A. His10-PGRMC1 (His10 disclosed as SEQ ID NO: 14) was confirmed to be present in purified membranes by SDS-PAGE followed by Coomassie stain and western blot using anti-tetra-His (SEQ ID NO: 15) antibody (Qiagen). Total protein in the His10-PGRMC1 (His10 disclosed as SEQ ID NO: 14) transformed and untransformed purified membranes was determined by the Bradford method and membranes were normalized to 10 μg/μL total protein (diluted with buffer A). Purified membranes were then aliquoted and stored frozen until use.
(§1) The standard 10 μL binding reaction contained 10 μp purified membranes (total protein) and 10 μM [^3H] progesterone or [^3H] cholesterol (3,000-5,000 cpm) in buffer A: 20% ethanol. Stock solutions (100 μM) of [^3H] cholesterol and [^3H] progesterone containing ˜4×10^4 cpm/μL, were prepared in 95% ethanol. Reactions were prepared in clear 2.0 mL microcentrifuge tubes on ice. To start the reaction, the microfuge tube was briefly mixed (vortex) and placed at 37° C. Following a 10 to 30 min incubation, the tubes were centrifuged in a microfuge (˜13,000 rpm) for 2 min. The supernatant was carefully removed and the pellet was washed with an additional 10 μL water. After a second round of centrifugation (2 min; 13,000 rpm), the resulting supernatant was combined with the first and the pellet was resuspended in 20 μL H2O, Scintillation fluid (700 μL Wallac Optiflour) was added to each fraction and the fractions were mixed extensively. The fractions were then counted in a multi-well scintillation counter (Wallac Microbeta Triluxmax, Waltham, Mass.) for 30 seconds each. Binding are reported as μ/moles of ligand bound per mg of membrane protein. His10-PGRMC1 (His10 disclosed as SEQ ID NO: 14)-specific binding is reported as the difference in binding between transformed and untransformed bacteria. Experimental deviations from the standard assay conditions are noted in individual figure legends.
In order to better understand PGRMC1's biological function and to study ligand binding, an in vitro binding assay was developed. E. coli BL21 codon plus (RIPL) cells were transformed with a vector encoding PGRMC1 that was epitope tagged with 10 histidine (SEQ ID NO: 14) residues at the NH2-terminus. Untransformed BL21 cells were used as the control. A purification procedure was performed to remove soluble proteins and cell components from the transformed (+PGRMC1) and untransformed (−PGRMC1) bacterial membranes. The resulting purified membranes were confirmed for the presence and absence of His10-PGRMC1 (His10 disclosed as SEQ ID NO: 14) respectively by Coomassie stain and western blot using anti-His antibody. The membranes with [^3H] progesterone or [^3H] cholesterol were then incubated. […]

[2] = target: T1, His10-PGRMC1; test: Competition of cold competitors with [^3H] progesterone or [^3H] cholesterol for His10-PGRMC1 binding; settings: for effect of cold competitor on binding of [^3H] cholesterol: competitor at ten-fold higher concentration; for effect of cold competitor on specific binding of [^3H] progesterone: excess cold competitor (10 or 100-fold), FIG. 9
Method: as §1
To test whether progesterone and cholesterol compete for the same specific binding site, the direct binding of [^3H] progesterone or [^3H] cholesterol to His10-PGRMC1 (His10 disclosed as SEQ ID NO: 14) in the presence of various cold competitors was examined. In these experiments, the standard amount of [^3H] ligand was combined with a cold competitor at either 10 or 100-fold higher concentration and mixed well to ensure homogeneity. These stock ligand solutions were then used in the standard binding assay as described.
The ability of other putative ligands reported in the literature to compete with progesterone binding was examined. […] As a control, cold progesterone (P) was used as a competitor and it was observed that excess cold progesterone competes with [^3H] progesterone for His10-PGRMC1 (His10 disclosed as SEQ ID NO: 14) binding. Contrastingly, binding of [^3H] cholesterol to His10-PGRMC1 (His10 disclosed as SEQ ID NO: 14) was unaffected by the presence of progesterone, ergosterol, or heme at ten-fold higher concentrations (FIG. 9, cholesterol). It was not until competitor concentrations were 100-fold higher than ligand that a reduction of cholesterol binding was observed.

[3] = Protease + (trypsin before ligand binding)
[4] = two binding site model fit of saturation data, non-specific site, read-out: Kd1
[5] = two binding site model, specific site, read-out: Kd2

Compound | Membrane-Associated [^3H] Ligand [1, 3] [nmoles/mg protein] | Membrane-Associated [^3H] Ligand ([1]; Protease −) [nmoles/mg protein] | Membrane-Associated [^3H] Ligand, Specific ([1]; Protease +) [nmoles/mg protein] | Membrane-Associated [^3H] Ligand, Specific ([1]; Protease −) [nmoles/mg protein] | cholesterol binding relative to progesterone binding ([1]; higher at every time point of the time course) | saturability of specific binding [1] | His10-PGRMC1 specific binding with proteolyzed membranes [1] | Kd of cholesterol relative to progesterone (fold lower) ([1]; specific site, two binding site model) [fold] | ligand bound at saturation/equilibrium in time course [1] | time to reach saturation/equilibrium of binding [1] | Kd [1, 4] [µM] | Q1 ([1]; two binding site model) | Kd [1, 5] | competitor excess over ligand at which a reduction of [^3H] cholesterol binding was observed [2] [fold] | effect of cold competitor on binding of [^3H] cholesterol [2] | effect of cold competitor on specific binding of [^3H] progesterone [2] | ligand concentration at half-maximal specific binding ([1]; saturation experiment, FIG. 8A) | Q2 ([1]; two binding site model) | Q2 ([1]; two binding site model, listed as progesterone)
CC(C)CCC[C@@H](C)[C@H]1CC[C@H]2[C@@H]3CC=C4C[C@@H](O)CC[C@]4(C)[C@H]3CC[C@]12C [Cholesterol, cholesterol] | 2.6 ± 0.2 | 5.2 ± 0.3 | 0.0 ± 0.2 | 1.5 ± 0.2 | 2-3 fold | did not appear to be saturable | complete loss | 15 | ~2 nmoles/mg protein | approximately the same rate as progesterone | 1000 | 9.6 × 10^9 Sites | 0.00035 µM | 100 | did not begin to reduce | greatly reduced | – | – | –
CC(=O)[C@H]1CC[C@H]2[C@@H]3CCC4=CC(=O)CC[C@]4(C)[C@H]3CC[C@]12C [Progesterone, progesterone] | 1.6 ± 0.3 | 3.1 ± 0.3 | 0.0 ± 0.1 | 0.7 ± 0.2 | – | appeared to be saturable | complete loss | – | approximately 0.5 nmoles/mg protein | 15 to 30 min | 1000 | 8.0 × 10^9 Sites | 0.0055 µM and 0.00554 µM | – | unaffected | competes | approximately 50 μM | 19,260 Sites | approximately 20,000 Sites
